According to US20200016136A1 (VIIV HEALTHCARE UK (NO. 5) LIMITED, priority 2017, published 2020):
pEC50: −log10 of the molar value.

Test system: NL-RLuc virus (recombinant NL4-3 HIV with Renilla Luciferase gene)
Assay: Inhibition of HIV replication (NL-RLuc virus in MT-2 cells, luciferase readout)
Format: cell-based, Human immunodeficiency virus (HIV)
Conditions: MT2, 120 h
Description: Inhibition of HIV Replication:
A recombinant NL-RLuc proviral clone was constructed in which a section of the nef gene form NL4-3 was replaced with the Renilla Luciferase gene. This virus is fully infectious and can undergo multiple cycles of replication in cell culture. In addition, the luciferous reporter provides a simple and easy method for quantitating the extent of virus growth and consequently, the antiviral activity of test compounds. The plasmid pNLRLuc contains the proviral NL-Rluc DNA cloned into pUC18 at the PvuII site. The NL-RLuc virus was prepared by transfection of 293T cells with the plasmid pNLRLuc. Transfections were performed using the LipofectAMINE PLUS kit form Invitrogen (Carlsbad, Calif.) according to the manufacturer and the virus generated was titered in MT-2 cells. For susceptibility analyses, the titrated virus was used to infect MT-2 cells in the presence of compound, and after 5 days of incubation, cells were processed and quantitated for virus growth by the amount of expressed luciferase. Assay media was RPMI 1640 supplemented with 10% heat inactivated fetal bovine serum (FBS), 100 units/ml penicillin G/100 units/ml streptomycin, 10 mM HEPES buffer pH 7.55 and 2 mM L-glutamine. The results form at least 2 experiments were used to calculate the EC50 values. Luciferase was quantitated using the Dual Luciferase kit form Promega (Madison, Wis.). Susceptibility of viruses to compounds was determined by incubation in the presence of serial dilutions of the compound. The 50% effective concentration (EC50) was calculated by using the exponential form of the median effect equation where (Fa)=1/[1+(ED50/drug conc.)^m](Johnson V A, Byington R T. Infectivity Assay. In Techniques in HIV Research. ed. Aldovini A, Walker B D. 71-76. New York: Stockton Press. 1990).

SMILES: Cc1nc(C)c([C@H](OC(C)(C)C)C(=O)O)c(N2CCC(C)(C)CC2)c1-c1ccc2c(c1)CCN(c1ccnc(N3CCC(C(C)(C)O)CC3)n1)C2 [Example 71, (S)-2-(tert-Butoxy)-2-(4-(4,4-dimethylpiperidin-1-yl)-5-(2-(2-(4-(2-hydroxypropan-2-yl)piperidin-1-yl)pyrimidin-4-yl)-1,2,3,4-tetrahydroisoquinolin-6-yl)-2,6-dimethylpyridin-3-yl)acetic Acid]
- pEC50: 8.40

SMILES: Cc1nc(C)c([C@H](OC(C)(C)C)C(=O)O)c(N2CCC(C)(C)CC2)c1-c1ccc2c(c1)CCN(c1nccc(N3CCCC3)n1)C2 [Example 21, (2S)-2-(tert-Butoxy)-2-[4-(4,4-dimethylpiperidin-1-yl)-2,6-dimethyl-5-{2-[4-(pyrrolidin-1-yl)pyrimidin-2-yl]-1,2,3,4-tetrahydroisoquinolin-6-yl}pyridin-3-yl]acetic Acid]
- pEC50: 8.70

SMILES: Cc1cccc(Cl)c1CN1CCc2cc(-c3c(NCc4ccn[nH]4)nc(C)c([C@H](OC(C)(C)C)C(=O)O)c3N3CCC(C)(C)CC3)ccc2C1 [Example 6, (S)-2-(6-(((1H-Pyrazol-5-yl)methyl)amino)-5-(2-(2-chloro-6-methylbenzyl)-1,2,3,4-tetrahydroisoquinolin-6-yl)-4-(4,4-dimethylpiperidin-1-yl)-2-methylpyridin-3-yl)-2-(tert-butoxy)acetic Acid]
- pEC50: 7.74

SMILES: Cc1nc(N2CCOCC2)cc(N2CCc3cc(-c4c(C)nc(C)c([C@H](OC(C)(C)C)C(=O)O)c4N4CCC(C)(C)CC4)ccc3C2)n1 [Example 64, (S)-2-(tert-Butoxy)-2-(4-(4,4-dimethylpiperidin-1-yl)-2,6-dimethyl-5-(2-(2-methyl-6-morpholinopyrimidin-4-yl)-1,2,3,4-tetrahydroisoquinolin-6-yl)pyridin-3-yl)acetic Acid]
- pEC50: 8.10

SMILES: Cc1nc(C)c([C@H](OC(C)(C)C)C(=O)O)c(N2CCC(C)(C)CC2)c1-c1ccc2c(c1)CCN(c1nccc(O)n1)C2 [Example 80, (S)-2-(tert-Butoxy)-2-(4-(4,4-dimethylpiperidin-1-yl)-5-(2-(4-hydroxypyrimidin-2-yl)-1,2,3,4-tetrahydroisoquinolin-6-yl)-2,6-dimethylpyridin-3-yl)acetic Acid]
- pEC50: 6.42

SMILES: Cc1cc(N2CCOCC2)nc(N2CCc3cc(-c4c(C)nc(C)c([C@H](OC(C)(C)C)C(=O)O)c4N4CCC(C)(C)CC4)ccc3C2)n1 [Example 37, (2S)-2-(tert-Butoxy)-2-[4-(4,4-dimethylpiperidin-1-yl)-2,6-dimethyl-5-{2-[4-methyl-6-(morpholin-4-yl)pyrimidin-2-yl]-1,2,3,4-tetrahydroisoquinolin-6-yl}pyridin-3-yl]acetic Acid]
- pEC50: 9.00

SMILES: Cc1nc(-c2cnn(C)c2C)c(-c2ccc3c(c2)CCN(c2ncnc4c2oc2ccccc24)C3)c(N2CCC(C)(C)CC2)c1[C@H](OC(C)(C)C)C(=O)O [Example 13, (S)-2-(5-(2-(Benzofuro[3,2-d]pyrimidin-4-yl)-1,2,3,4-tetrahydroisoquinolin-6-yl)-6-(1,5-dimethyl-1H-pyrazol-4-yl)-4-(4,4-dimethylpiperidin-1-yl)-2-methylpyridin-3-yl)-2-(tert-butoxy)acetic Acid]
- pEC50: 8.70

SMILES: Cc1nc(C)c([C@H](OC(C)(C)C)C(=O)O)c(N2CCC(C)(C)CC2)c1-c1ccc2c(c1)CCN(c1cc(N3CCCC(C)(C)C3)ncn1)C2 [Example 139, (S)-2-(tert-Butoxy)-2-(4-(4,4-dimethylpiperidin-1-yl)-5-(2-(6-(3,3-dimethylpiperidin-1-yl)pyrimidin-4-yl)-1,2,3,4-tetrahydroisoquinolin-6-yl)-2,6-dimethylpyridin-3-yl)acetic Acid]
- pEC50: 8.40

SMILES: Cc1nc(C)c([C@H](OC(C)(C)C)C(=O)O)c(N2CCC(C)(C)CC2)c1-c1ccc2c(c1)CCN(c1cc(N3CCC(C)CC3)ncn1)C2 [Example 138, (S)-2-(tert-Butoxy)-2-(4-(4,4-dimethylpiperidin-1-yl)-2,6-dimethyl-5-(2-(6-(4-methylpiperidin-1-yl)pyrimidin-4-yl)-1,2,3,4-tetrahydroisoquinolin-6-yl)pyridin-3-yl)acetic Acid]
- pEC50: 8.70

SMILES: Cc1nc(NCCCN2CCN(C)CC2)c(-c2ccc3c(c2)CCN(c2ncnc4c2oc2ccccc24)C3)c(N2CCC(C)(C)CC2)c1[C@H](OC(C)(C)C)C(=O)O [Example 16, (S)-2-(5-(2-(Benzofuro[3,2-d]pyrimidin-4-yl)-1,2,3,4-tetrahydroisoquinolin-6-yl)-4-(4,4-dimethylpiperidin-1-yl)-2-methyl-6-((3-(4-methylpiperazin-1-yl)propyl)amino)pyridin-3-yl)-2-(tert-butoxy)acetic Acid]
- pEC50: 8.70

SMILES: Cc1nc(C#N)c(-c2ccc3c(c2)CCN(c2ncnc4c2oc2ccccc24)C3)c(N2CCC(C)(C)CC2)c1[C@H](OC(C)(C)C)C(=O)O [Example 50]
- pEC50: 8.40

SMILES: COc1ncccc1-c1cc(C)nc(N2CCc3cc(-c4c(C)nc(C)c([C@H](OC(C)(C)C)C(=O)O)c4N4CCC(C)(C)CC4)ccc3C2)n1 [Example 106, (S)-2-(tert-Butoxy)-2-(4-(4,4-dimethylpiperidin-1-yl)-5-(2-(4-(2-methoxypyridin-3-yl)-6-methylpyrimidin-2-yl)-1,2,3,4-tetrahydroisoquinolin-6-yl)-2,6-dimethylpyridin-3-yl)acetic Acid]
- pEC50: 8.10

SMILES: Cc1cccc(Cl)c1CN1CCc2cc(-c3c(NCCCN4CCCCC4)nc(C)c([C@H](OC(C)(C)C)C(=O)O)c3N3CCC(C)(C)CC3)ccc2C1 [Example 10, (S)-2-(tert-Butoxy)-2-(5-(2-(2-chloro-6-methylbenzyl)-1,2,3,4-tetrahydroisoquinolin-6-yl)-4-(4,4-dimethylpiperidin-1-yl)-2-methyl-6-((3-(piperidin-1-yl)propyl)amino)pyridin-3-yl)acetic Acid]
- pEC50: 8.70

SMILES: Cc1nc(C)c([C@H](OC(C)(C)C)C(=O)O)c(N2CCC(C)(C)CC2)c1-c1ccc2c(c1)CCN(c1cc(N3CCOCC3)cnn1)C2 [Example 55, (S)-2-(tert-Butoxy)-2-(4-(4,4-dimethylpiperidin-1-yl)-2,6-dimethyl-5-(2-(5-morpholinopyridazin-3-yl)-1,2,3,4-tetrahydroisoquinolin-6-yl)pyridin-3-yl)acetic Acid]
- pEC50: 7.68

SMILES: Cc1nc(C)c([C@H](OC(C)(C)C)C(=O)O)c(N2CCC(C)(C)CC2)c1-c1ccc2c(c1)CCN(c1ncnc(N3CCC(CO)CC3)n1)C2 [Example 62, (S)-2-(tert-Butoxy)-2-(4-(4,4-dimethylpiperidin-1-yl)-5-(2-(4-(4-(hydroxymethyl)piperidin-1-yl)-1,3,5-triazin-2-yl)-1,2,3,4-tetrahydroisoquinolin-6-yl)-2,6-dimethylpyridin-3-yl)acetic Acid]
- pEC50: 8.52

SMILES: Cc1nc(C)c([C@H](OC(C)(C)C)C(=O)O)c(N2CCC(C)(C)CC2)c1-c1ccc2c(c1)CCN(c1cc(N(C)CCCN(C)C)ncn1)C2 [Example 140, (S)-2-(tert-Butoxy)-2-(5-(2-(6-((3-(dimethylamino)propyl)(methyl)amino)pyrimidin-4-yl)-1,2,3,4-tetrahydroisoquinolin-6-yl)-4-(4,4-dimethylpiperidin-1-yl)-2,6-dimethylpyridin-3-yl)acetic Acid]
- pEC50: 7.46
